Data on one molecule can be found in US20240016884A1, “WS635 USES THEREOF IN MEDICINE” (WATERSTONE PHARMACEUTICALS (WUHAN) CO., LTD., priority 2021, published 2024).

Data set [1] deals with anesthesia/surgery-induced delirium-like behavior in mice. Briefly: Buried Food Test after anesthesia/surgery. The class given is in vivo. An excerpt:
(§1) Mice Anesthesia and Surgery. 18-month-old C57BL/J6 female mice were adaptive in lab for 3 days. The mice were randomly assigned to the anesthesia/surgery group or control group by weight. […] Specifically, we anesthetized each of the mice using 1.4% isoflurane in 100% oxygen in a transparent acrylic chamber. Fifteen minutes after the induction, we moved the mouse out of the chamber. Isoflurane anesthesia was maintained via a cone device, and one 16-gauge needle was inserted into the cone near the nose of the mouse to monitor the concentration of isoflurane. We made a longitudinal midline incision from the xiphoid to the 0.5 centimeter proximal pubic symphysis on the skin, abdominal muscles and peritoneum. We then sutured the incision layer by layer with 5-0 Vicryl thread.
(§2) WS635 Treatment. WS635 was dissolved in corn oil with 10% DMSO, each of the mice will be injected with WS635 solution in the dose of 40 mg/kg for 0.2 ml through IP at 30 minutes before control condition or anesthesia/surgery by using 27G×½ needles. The mice in control group received 0.2 ml of corn oil with 10% DMSO.
(§3) Behaviors Tests. […] We will perform the behavior tests in groups of 3 mice and finished them within 50 minutes, which mimics the certain features of clinical evaluation of delirium in patients.
Buried Food Test. Specifically, two days before the test, we will give each mouse 2 pieces of the sweetened cereal. […]

For data set [2] the test system is unchanged. As to the kind of experiment: Y Maze Test after anesthesia/surgery. To be noted: 40 mg/kg IP 30 minutes before anesthesia/surgery. The class given is in vivo.
Source text: as §1, §2, §3
Y Maze Test. Specifically, the Y maze, made of gray polyvinylene, will be placed in a quiet and illuminated room. […]

Data set [3] shares this test system. Briefly: Open Field Test after anesthesia/surgery. The class given is in vivo. To be noted: 40 mg/kg IP 30 minutes before anesthesia/surgery.
Source text: as §1, §2, §3
Open Field Test. Specifically, the mouse will be gently placed in the center of an open field chamber (40×40×40 centimeters) under dim light and will be allowed to move freely for 5 minutes. The movement parameters of the mouse will be monitored and analyzed via a video camera connected to the Any-Maze animal tracking system software (Stoelting Co., Wood Dale, IL). The total distance moved (meters), the time (seconds) spent in the center of the open field, the freezing time (seconds) and the latency (the time in seconds for the mice to reach to the location at the first attempt) to the center of the open field will be recorded and analyzed. The floor of the open field will be cleaned with 70% ethanol solution between each test. […]

Data set [4] has the same test system. Briefly: delirium-like behaviors overall (composite Z score) after anesthesia/surgery. It is filed as in vivo.
Source text: as §1, §2
Behaviors Tests. […] We will perform the behavior tests in groups of 3 mice and finished them within 50 minutes, which mimics the certain features of clinical evaluation of delirium in patients. […]

Data set [5] deals with anesthesia/surgery-induced cognitive impairment in mice. Briefly: anesthesia/surgery-induced cognitive impairment in mice. It is filed as in vivo. Particulars: 1.4% isoflurane and abdominal surgery.
Source text: as §1
Mice Anesthesia for isoflurane-induced cognitive impairment experiment. 8 month-old C57BL/6J mice. Anesthesia: 1.4% isoflurane for two hours.
WS635 Treatment for isoflurane-induced cognitive impairment experiment. WS635 was dissolved in 10% DMSO plus corn oil. Each mouse received 26.4 mg/kg WS635 or same volume of vehicle (10% DMSO plus corn oil) at 30 minutes before the anesthesia. Then, the mice were tested in Fear Conditioning System at 48 hours and 7 days after the anesthesia.
WS635 Treatment. […]

The test system of data set [6] is hepatitis C virus (HCV) replication. Particulars: in vitro; cited from earlier work.
In the next data set the target is cyclophilin A (Homo sapiens, UniProt P62937). To be noted: cited from earlier work.
Sequence of cyclophilin A (P62937 whole entry, species assumed): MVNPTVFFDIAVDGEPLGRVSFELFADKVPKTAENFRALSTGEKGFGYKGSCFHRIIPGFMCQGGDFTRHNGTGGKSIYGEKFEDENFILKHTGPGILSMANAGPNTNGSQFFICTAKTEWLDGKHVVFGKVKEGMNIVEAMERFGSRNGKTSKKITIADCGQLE
The test system of another data set is calcineurin. To be noted: at concentrations up to 2 μM; cited from earlier work.
In the next data set the test system is cytochrome P450 1A2. To be noted: metabolic studies; cited from earlier work.
A further data set concerns cytochrome P450 2B6. To be noted: metabolic studies; cited from earlier work.
Another data set relates to cytochrome P450 3A4. To be noted: metabolic studies; cited from earlier work.
A further data set addresses P-glycoprotein (Homo sapiens, UniProt P08183). To be noted: cited from earlier work.
The subject of another data set is stimulated Jurkat cells. Particulars: compared with cyclosporine; cited from earlier work.
The test system of data set [7] is stimulated human peripheral blood mononuclear cells. To be noted: compared with cyclosporine; cited from earlier work.
The next data set relates to hepatitis C virus (HCV). Particulars: two-drug combination, in vitro; cited from earlier work.
The conditions of data set [8]: cited from earlier work.

Sequence of P-glycoprotein (P08183 whole entry): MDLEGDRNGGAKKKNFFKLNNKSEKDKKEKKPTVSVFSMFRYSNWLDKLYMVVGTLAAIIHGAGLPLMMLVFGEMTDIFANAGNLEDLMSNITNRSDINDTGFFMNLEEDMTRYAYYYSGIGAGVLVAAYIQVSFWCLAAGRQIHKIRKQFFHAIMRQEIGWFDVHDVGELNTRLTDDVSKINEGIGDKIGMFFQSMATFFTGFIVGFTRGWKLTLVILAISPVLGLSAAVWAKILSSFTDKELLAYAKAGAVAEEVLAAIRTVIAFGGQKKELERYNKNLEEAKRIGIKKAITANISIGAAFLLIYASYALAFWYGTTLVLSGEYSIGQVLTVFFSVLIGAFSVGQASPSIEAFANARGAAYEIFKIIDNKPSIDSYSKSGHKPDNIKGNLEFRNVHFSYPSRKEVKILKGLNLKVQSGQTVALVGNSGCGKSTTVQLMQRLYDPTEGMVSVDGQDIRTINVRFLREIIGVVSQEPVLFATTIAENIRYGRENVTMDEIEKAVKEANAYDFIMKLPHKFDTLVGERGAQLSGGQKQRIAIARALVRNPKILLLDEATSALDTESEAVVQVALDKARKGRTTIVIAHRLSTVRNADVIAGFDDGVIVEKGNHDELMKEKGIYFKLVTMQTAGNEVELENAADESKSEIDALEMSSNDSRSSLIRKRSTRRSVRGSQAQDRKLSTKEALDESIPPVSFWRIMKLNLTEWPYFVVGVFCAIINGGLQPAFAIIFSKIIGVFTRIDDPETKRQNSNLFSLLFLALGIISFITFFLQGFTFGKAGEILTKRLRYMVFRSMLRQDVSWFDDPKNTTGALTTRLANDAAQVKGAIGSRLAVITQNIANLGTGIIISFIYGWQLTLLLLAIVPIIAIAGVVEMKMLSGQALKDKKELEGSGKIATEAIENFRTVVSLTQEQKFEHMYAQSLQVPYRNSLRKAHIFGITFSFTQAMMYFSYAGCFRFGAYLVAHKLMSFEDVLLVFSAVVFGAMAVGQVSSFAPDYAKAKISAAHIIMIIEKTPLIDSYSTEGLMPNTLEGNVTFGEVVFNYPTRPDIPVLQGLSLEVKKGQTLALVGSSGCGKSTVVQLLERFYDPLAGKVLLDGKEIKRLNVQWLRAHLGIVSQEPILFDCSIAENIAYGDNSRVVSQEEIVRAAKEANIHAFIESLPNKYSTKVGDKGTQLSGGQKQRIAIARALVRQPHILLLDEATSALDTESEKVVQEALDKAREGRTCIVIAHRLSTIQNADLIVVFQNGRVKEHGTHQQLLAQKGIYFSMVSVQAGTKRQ

As for `C/C=C/C[C@@H](C)[C@@H](O)[C@H]1C(=O)N[C@@H](CC)C(=O)N(C)[C@H](SCCN(C)C)C(=O)N(C)[C@@H](CC(C)(C)O)C(=O)N[C@@H](C(C)C)C(=O)N(C)[C@@H](CC(C)C)C(=O)N[C@@H](C)C(=O)N[C@H](C)C(=O)N(C)[C@@H](CC(C)C)C(=O)N(C)[C@@H](CC(C)C)C(=O)N(C)[C@@H](C(C)C)C(=O)N1C` [WS635, (3 S,6 S,9S,12R,15 S,18 S,21 S,24S,27R,30S,33 S)-27-((2-(dimethylamino)ethyl)thio)-30-ethyl-33-((1R,2R,E)-1-hydroxy-2-methylhex-4-en-1-yl)-24-(2-hydroxy-2-methy 1propyl)-6,9,18-tri isobutyl-3,21-diisopropyl-1,4,7,10,12,15,19,25,28-nonamethyl-1,4,7,10,13,16,19,22,25,28,3 1-undecaazacyclotritriacontan-2,5,8,11,14,17,20,23,26,29,32-undecaone], in data set [1] (40 mg/kg IP 30 minutes before anesthesia/surgery, 18-month-old C57BL/J6 female mice), the “anesthesia/surgery-induced increase of latency to eat food in the buried food test” value is “can attenuate”. In data set [1] (mice), the “anesthesia/surgery-induced changes in Buried Food Test, dose dependence” value is recorded as “dose-dependent manner”. Besides, in data set [2], the “anesthesia/surgery-induced decrease of duration in the novel arm in the Y maze test” value was “can attenuate” and the “anesthesia/surgery-induced decrease of number of entries in the novel arm in the Y maze test” value is recorded as “can attenuate”. Moreover, in data set [3], the “anesthesia/surgery-induced change of freezing time in the open field test” value is “can attenuate”, the “anesthesia/surgery-induced decrease of time spent in the center of the open field” value is given as “can attenuate” and the “anesthesia/surgery-induced increase of latency to the center in the open field test” value is given as “can attenuate”. Moreover, in data set [4] (40 mg/kg), the “anesthesia/surgery-induced changes of delirium-like behaviors” value is given as “more effectively attenuate”. For the same molecule, in data set [4] (FIG. 15), the “anesthesia/surgery-induced delirium-like behavior (composite Z score)” value is reported as “able to attenuate”. In data set [5], the anesthesia/surgery-induced cognitive impairment entry is “significantly attenuate”. Also, the “suppression of hepatitis C virus (HCV) replication” value in [6] is on record as “potent suppression”. Also, the “inhibition of the peptidyl prolyl isomerase activity of cyclophilin A” value at cyclophilin A is “nanomolar concentrations”. For the same molecule, in the data set on calcineurin, the “inhibition of calcineurin phosphatase activity” value is given as “no detectable inhibition”. In addition, the “induction of cytochrome P450 1A2” value with cytochrome P450 1A2 is reported as “did not induce”. Besides, the “induction of cytochrome P450 2B6” value in the data set with cytochrome P450 2B6 is reported as “did not induce”. In addition, the “induction of cytochrome P450 3A4” value in the data set with cytochrome P450 3A4 is “did not induce”. Moreover, at P-glycoprotein, the P-glycoprotein inhibition entry is “weak inhibitor” and the P-glycoprotein substrate result was “poor substrate”. In the data set on stimulated Jurkat cells, the “inhibition of interleukin-2 secretion” value is listed as “weaker inhibitor of interleukin-2 secretion than cyclosporine”. In addition, the “inhibition of interleukin-2 secretion” value in data set [7] is given as “weaker inhibitor of interleukin-2 secretion than cyclosporine”. Besides, in the data set with hepatitis C virus (HCV), the “antiviral activity in combination with alpha interferon 2b” value is given as “synergistic antiviral activity” and the “antiviral activity in combination with ribavirin” value is “additive antiviral activity”. Further, the “blood and liver concentrations of parent drug versus 50% effective dose in replicon assay” value in data set [8] (in vivo, po) is “exceeded the 50% effective dose”. The oral bioavailability entry in [8] (multiple animal species) was “orally bioavailable”.
